Article PMC6739424, “Osh Proteins Control Nanoscale Lipid Organization Necessary for PI(4,5)P2 Synthesis” (Molecular Cell, 2019)

Target: T1, zPIP5K (zebrafish PIP5K1A, zPIP5K1Aα) (Danio rerio, UniProt Q503I3)
T1 construct: gene pip5k1aa; kinase domain aa 49-431, His-tagged (pET21b+), E. coli
Assay: real-time liposome assay with NBD-PHPLCδ PI([…])P2 sensor
Type: biochemical
Details: ATP 80 uM, 2 mM MgCl2, pH 7.5; liposomes without PS or sterol; allosteric sigmoidal fit

T1 sequence (Q503I3 49-431): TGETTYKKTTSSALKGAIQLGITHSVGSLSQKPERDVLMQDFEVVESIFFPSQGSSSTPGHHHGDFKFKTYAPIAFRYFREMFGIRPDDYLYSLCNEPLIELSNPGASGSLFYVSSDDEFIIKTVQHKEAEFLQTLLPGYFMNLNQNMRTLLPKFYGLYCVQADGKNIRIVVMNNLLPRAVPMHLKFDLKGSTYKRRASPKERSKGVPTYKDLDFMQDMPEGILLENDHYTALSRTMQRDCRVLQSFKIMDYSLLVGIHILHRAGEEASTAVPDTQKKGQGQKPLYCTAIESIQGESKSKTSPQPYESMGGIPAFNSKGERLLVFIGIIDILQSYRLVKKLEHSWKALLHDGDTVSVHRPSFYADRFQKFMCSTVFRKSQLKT

L-α-phosphatidylinositol-4-phosphate [bPI4P]
apparent Km: 6.2 mol%
